Active and inactive are the calls of the source. The rule behind the calls is not given here.
Experiments:
[1] = target: T1, Toll-like receptor 4 (Mus musculus) (UniProt Q9QUK6); assay: Inhibition of LPS binding to TLR4 in IFNgamma-stimulated mouse RAW264.7 cells assessed as reduction in nitric oxide production at 25 to 100 uM pretreated for 2 hrs followed by LPS/IFNgamma stimulation and measured after 24 hrs; format: cell-based
T1 sequence (whole entry): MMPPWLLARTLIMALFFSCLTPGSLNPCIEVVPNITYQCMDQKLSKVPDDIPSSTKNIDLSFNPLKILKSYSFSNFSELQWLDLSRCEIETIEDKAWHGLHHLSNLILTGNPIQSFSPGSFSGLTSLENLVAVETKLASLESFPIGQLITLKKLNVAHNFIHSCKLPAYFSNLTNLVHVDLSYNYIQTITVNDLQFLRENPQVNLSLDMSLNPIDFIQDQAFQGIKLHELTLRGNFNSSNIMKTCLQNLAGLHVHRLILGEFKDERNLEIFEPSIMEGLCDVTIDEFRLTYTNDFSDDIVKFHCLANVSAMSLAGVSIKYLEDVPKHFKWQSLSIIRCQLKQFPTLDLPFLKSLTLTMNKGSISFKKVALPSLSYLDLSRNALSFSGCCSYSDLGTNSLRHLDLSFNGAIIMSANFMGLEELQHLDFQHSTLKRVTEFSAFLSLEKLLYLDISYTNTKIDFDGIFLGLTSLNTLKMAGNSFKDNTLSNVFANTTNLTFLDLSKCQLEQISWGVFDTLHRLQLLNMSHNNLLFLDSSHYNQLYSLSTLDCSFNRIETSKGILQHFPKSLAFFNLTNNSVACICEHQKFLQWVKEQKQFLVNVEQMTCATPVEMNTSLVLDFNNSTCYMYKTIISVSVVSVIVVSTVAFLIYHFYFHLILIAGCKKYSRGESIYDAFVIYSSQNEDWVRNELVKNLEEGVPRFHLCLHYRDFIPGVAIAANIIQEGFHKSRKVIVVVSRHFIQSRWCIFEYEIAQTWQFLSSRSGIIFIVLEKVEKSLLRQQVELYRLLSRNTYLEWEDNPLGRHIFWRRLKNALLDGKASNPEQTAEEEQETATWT

[2] = target: T1, Toll-like receptor 4 (Mus musculus); assay: Inhibition of LPS binding to TLR4 in IFNgamma-stimulated mouse RAW264.7 cells assessed as reduction in nitric oxide production pretreated for 2 hrs followed by LPS/IFNgamma stimulation and measured after 24 hrs; format: cell-based

Row | SMILES | inhibition [1] | inhibition [2]
1 | CC1(C)[C@@H](O)CC[C@]2(C)[C@H]3C(=O)C=C4[C@@H]5C[C@@](C)(C(=O)O)CC[C@]5(C)CC[C@@]4(C)[C@]3(C)CC[C@@H]12 | inactive | –
2 | CC1(C)CC[C@]2(C(=O)O)CC[C@]3(C)C(=CC[C@@H]4[C@@]5(C)CC[C@H](O)C(C)(C)[C@@H]5CC[C@]43C)[C@@H]2C1 | inactive | –
3 | C[C@H]1[C@H](C)CC[C@]2(C(=O)O)CC[C@]3(C)C(=CC[C@@H]4[C@@]5(C)CC[C@H](O)C(C)(C)[C@@H]5CC[C@]43C)[C@H]12 | – | Dose-dependent effect
4 | C=C(C)[C@@H]1CC[C@]2(C(=O)O)CC[C@]3(C)[C@H](CC[C@@H]4[C@@]5(C)CC[C@H](O)C(C)(C)[C@@H]5CC[C@]43C)[C@@H]12 | inactive | –
5 | CC1(C)CC[C@]2(C)CC[C@]3(C(=O)O)C(=CC[C@@H]4[C@@]5(C)CCC(=O)C(C)(C)[C@@H]5CC[C@]43C)[C@@H]2C1 | inactive | –
